# Laboratory results published in paper PMC7884382, “A Phase 1 study of RO6870810, a novel bromodomain and extra-terminal protein inhibitor, in patients with NUT carcinoma, other solid tumours, or diffuse large B-cell lymphoma” (British Journal of Cancer, 2020).
# Where two headings read alike, the source gives them in different places.
# Protocol: Patients were considered evaluable for safety if they received ≥1 injection of the study drug. All adverse events (AEs) were graded per the National Cancer Institute’s Common Terminology Criteria for Adverse Events (CTCAE) version 4.03.
# Grade ≤3 drug-related fever or skin or SC tissue disorders localised to the site of injection—including grade ≤3 rash, pruritus, skin induration or pain—were not considered DLTs.
# Data for patients with NC and lymphoma were evaluated but not included in the MTD determination.
structure (smiles),measurement,setting,value
Cc1sc2c(c1C)C(c1ccc(Cl)cc1)=N[C@@H](CC(=O)NCCCN1CCN(C)CC1)c1nnc(C)n1-2 [RO6870810],Death due to AE,DLBCL (n = 19),3 (15.8) n (%)
same,Death due to treatment-related AE,DLBCL (n = 19),0 n (%)
same,Death due to AE,NC (n = 8),3 (37.5) n (%)
same,Death due to treatment-related AE,NC (n = 8),0 n (%)
same,Death due to AE,Solid tumours (n = 47),2 (4.3) n (%)
same,Death due to treatment-related AE,Solid tumours (n = 47),0 n (%)
same,Treatment-related grade 5 AEs,all patients,No treatment-related grade 5 AEs occurred
same,Grade 3/4 treatment-related AE: anaemia,"human, in vivo",8%
same,Grade 3/4 treatment-related AE: fatigue,"human, in vivo",10%
same,Grade 3/4 treatment-related AE: hyperbilirubinemia,"human, in vivo",5%
same,Grade 3/4 treatment-related AE: thrombocytopenia,"human, in vivo",10%
same,Incidence of treatment-related thrombocytopenia,"human, in vivo",12%
same,Treatment-emergent AE: Abdominal pain,"human, in vivo",13 (17.6) n (%)
same,Treatment-emergent AE: Anemia,"human, in vivo",20 (27.0) n (%)
same,Treatment-emergent AE: Back pain,"human, in vivo",13 (17.6) n (%)
same,Treatment-emergent AE: Blood bilirubin increased,"human, in vivo",14 (18.9) n (%)
same,Treatment-emergent AE: Constipation,"human, in vivo",14 (18.9) n (%)
same,Treatment-emergent AE: Cough,"human, in vivo",10 (13.5) n (%)
same,Treatment-emergent AE: Decreased appetite,"human, in vivo",38 (51.4) n (%)
same,Treatment-emergent AE: Dehydration,"human, in vivo",13 (17.6) n (%)
same,Treatment-emergent AE: Diarrhea,"human, in vivo",26 (35.1) n (%)
same,Treatment-emergent AE: Dizziness,"human, in vivo",10 (13.5) n (%)
same,Treatment-emergent AE: Dry mouth,"human, in vivo",11 (14.9) n (%)
same,Treatment-emergent AE: Dysgeusia,"human, in vivo",20 (27.0) n (%)
same,Treatment-emergent AE: Dyspnea,"human, in vivo",12 (16.2) n (%)
same,Treatment-emergent AE: Fatigue,"human, in vivo",43 (58.1) n (%)
same,Treatment-emergent AE: Headache,"human, in vivo",12 (16.2) n (%)
same,Treatment-emergent AE: Hypomagnesaemia,"human, in vivo",10 (13.5) n (%)
same,Treatment-emergent AE: Injection site erythema,"human, in vivo",26 (35.1) n (%)
same,Treatment-emergent AE: Injection site induration,"human, in vivo",21 (28.4) n (%)
same,Treatment-emergent AE: Injection site pain,"human, in vivo",25 (33.8) n (%)
same,Treatment-emergent AE: Injection site pruritus,"human, in vivo",15 (20.3) n (%)
same,Treatment-emergent AE: Injection site reaction,"human, in vivo",10 (13.5) n (%)
same,Treatment-emergent AE: Injection site swelling,"human, in vivo",10 (13.5) n (%)
same,Treatment-emergent AE: Malaise,"human, in vivo",16 (21.6) n (%)
same,Treatment-emergent AE: Myalgia,"human, in vivo",12 (16.2) n (%)
same,Treatment-emergent AE: Nausea,"human, in vivo",32 (43.2) n (%)
same,Treatment-emergent AE: Thrombocytopenia,"human, in vivo",10 (13.5) n (%)
same,Treatment-emergent AE: Vomiting,"human, in vivo",28 (37.8) n (%)
same,Treatment-emergent AE: Weight decreased,"human, in vivo",9 (12.2) n (%)
same,Treatment-related AE of any grade: decreased appetite,"human, in vivo",35%
same,Treatment-related AE of any grade: fatigue,"human, in vivo",42%
same,Treatment-related AE of any grade: injection-site erythema,"human, in vivo",35%
same,Treatment-related AE of any grade: injection-site pain,"human, in vivo",32%
same,Treatment-related AE of any grade: nausea,"human, in vivo",31%
same,Treatment-related AE: Cardiomyopathy,"human, in vivo",1 (1.4) n (%)
same,Treatment-related AE: Cholestasis,"human, in vivo",1 (1.4) n (%)
same,Treatment-related AE: Dyspnoea,"human, in vivo",1 (1.4) n (%)
same,Treatment-related AE: Hepatic enzyme increased,"human, in vivo",1 (1.4) n (%)
same,Treatment-related AE: Neutropenia,"human, in vivo",1 (1.4) n (%)
same,Treatment-related AE: Peritoneal haemorrhage,"human, in vivo",1 (1.4) n (%)
same,Treatment-emergent AE: Abdominal pain,"human, in vivo, 0.03 mg/kg",1 (33.3) n (%)
same,Treatment-emergent AE: Anemia,"human, in vivo, 0.03 mg/kg",0 n (%)
same,Treatment-emergent AE: Back pain,"human, in vivo, 0.03 mg/kg",0 n (%)
same,Treatment-emergent AE: Blood bilirubin increased,"human, in vivo, 0.03 mg/kg",0 n (%)
same,Treatment-emergent AE: Constipation,"human, in vivo, 0.03 mg/kg",0 n (%)
same,Treatment-emergent AE: Cough,"human, in vivo, 0.03 mg/kg",0 n (%)
same,Treatment-emergent AE: Decreased appetite,"human, in vivo, 0.03 mg/kg",0 n (%)
same,Treatment-emergent AE: Dehydration,"human, in vivo, 0.03 mg/kg",0 n (%)
same,Treatment-emergent AE: Diarrhea,"human, in vivo, 0.03 mg/kg",1 (33.3) n (%)
same,Treatment-emergent AE: Dizziness,"human, in vivo, 0.03 mg/kg",0 n (%)
same,Treatment-emergent AE: Dry mouth,"human, in vivo, 0.03 mg/kg",0 n (%)
same,Treatment-emergent AE: Dysgeusia,"human, in vivo, 0.03 mg/kg",0 n (%)
same,Treatment-emergent AE: Dyspnea,"human, in vivo, 0.03 mg/kg",0 n (%)
same,Treatment-emergent AE: Fatigue,"human, in vivo, 0.03 mg/kg",0 n (%)
same,Treatment-emergent AE: Headache,"human, in vivo, 0.03 mg/kg",0 n (%)
same,Treatment-emergent AE: Hypomagnesaemia,"human, in vivo, 0.03 mg/kg",1 (33.3) n (%)
same,Treatment-emergent AE: Injection site erythema,"human, in vivo, 0.03 mg/kg",2 (66.7) n (%)
same,Treatment-emergent AE: Injection site induration,"human, in vivo, 0.03 mg/kg",1 (33.3) n (%)
same,Treatment-emergent AE: Injection site pain,"human, in vivo, 0.03 mg/kg",0 n (%)
same,Treatment-emergent AE: Injection site pruritus,"human, in vivo, 0.03 mg/kg",3 (100) n (%)
same,Treatment-emergent AE: Injection site reaction,"human, in vivo, 0.03 mg/kg",0 n (%)
same,Treatment-emergent AE: Injection site swelling,"human, in vivo, 0.03 mg/kg",1 (33.3) n (%)
same,Treatment-emergent AE: Malaise,"human, in vivo, 0.03 mg/kg",1 (33.3) n (%)
same,Treatment-emergent AE: Myalgia,"human, in vivo, 0.03 mg/kg",1 (33.3) n (%)
same,Treatment-emergent AE: Nausea,"human, in vivo, 0.03 mg/kg",1 (33.3) n (%)
same,Treatment-emergent AE: Thrombocytopenia,"human, in vivo, 0.03 mg/kg",0 n (%)
same,Treatment-emergent AE: Vomiting,"human, in vivo, 0.03 mg/kg",0 n (%)
same,Treatment-emergent AE: Abdominal pain,"human, in vivo, 0.06 mg/kg",1 (33.3) n (%)
same,Treatment-emergent AE: Anemia,"human, in vivo, 0.06 mg/kg",0 n (%)
same,Treatment-emergent AE: Back pain,"human, in vivo, 0.06 mg/kg",0 n (%)
same,Treatment-emergent AE: Blood bilirubin increased,"human, in vivo, 0.06 mg/kg",0 n (%)
same,Treatment-emergent AE: Constipation,"human, in vivo, 0.06 mg/kg",1 (33.3%) n (%)
same,Treatment-emergent AE: Cough,"human, in vivo, 0.06 mg/kg",0 n (%)
same,Treatment-emergent AE: Decreased appetite,"human, in vivo, 0.06 mg/kg",0 n (%)
same,Treatment-emergent AE: Dehydration,"human, in vivo, 0.06 mg/kg",0 n (%)
same,Treatment-emergent AE: Diarrhea,"human, in vivo, 0.06 mg/kg",0 n (%)
same,Treatment-emergent AE: Dizziness,"human, in vivo, 0.06 mg/kg",0 n (%)
same,Treatment-emergent AE: Dry mouth,"human, in vivo, 0.06 mg/kg",0 n (%)
same,Treatment-emergent AE: Dysgeusia,"human, in vivo, 0.06 mg/kg",0 n (%)
same,Treatment-emergent AE: Dyspnea,"human, in vivo, 0.06 mg/kg",0 n (%)
same,Treatment-emergent AE: Fatigue,"human, in vivo, 0.06 mg/kg",2 (66.7) n (%)
same,Treatment-emergent AE: Headache,"human, in vivo, 0.06 mg/kg",0 n (%)
same,Treatment-emergent AE: Hypomagnesaemia,"human, in vivo, 0.06 mg/kg",0 n (%)
same,Treatment-emergent AE: Injection site erythema,"human, in vivo, 0.06 mg/kg",1 (33.3) n (%)
